According to patent US8022080B2, “Small molecules with antiprotozoal activity” (Radix Pharmaceuticals Inc., priority 2009, dated 2011):
In brackets after ≈: the same amount, converted by molar mass. Where two headings read alike, the source gives them in different places.

Key:
[1] = system: P. falciparum D6 (chloroquine sensitive); experiment: In vitro anti-malarial activity, [3H]hypoxanthine uptake, D6 clone; format: cell-based, Plasmodium falciparum
Excerpt: (§1) For in vitro toxicological studies, the following cell line was chosen: human adult liver epithelial cells (THLE-3). THLE-3 cells express phenotypic characteristics of normal adult liver epithelial cells and constitute a valuable model for pharmacotoxicological studies.
(§2) Two P. falciparum malaria parasite clones, W2 and D6, from Malaria Research and Reference Reagent Resource Center (MR4), were utilized in susceptibility testing. […] Test compounds were initially dissolved in DMSO and diluted 400 fold in RPMI 1640 culture medium supplemented with 25 mM Hepes, 32 mM NaHCO3 and 10% Albumax I (Gibco, N.Y.). These solutions were subsequently serially diluted two-fold with a Beckman Biomek® 1000 Robot (Fullerton, Calif.) over 11 different concentrations. The parasites were exposed to serial dilutions of each compound for 48 hrs and incubated at 37° C. with 5% O2, 5% CO2 and 90% N2 prior to the addition of [^3H]hypoxanthine. After a further incubation of 18 hrs, parasite DNA was harvested from each microtiter well using Packard Filtermate™ 196 Harvester (Meriden, Conn.) onto glass filters. Uptake of [^3H]hypoxanthine was measured with a Packard TopCount Liquid Scintillation Counter (Packard Instrument Co.).

[2] = system: P. falciparum W2 (chloroquine resistant); experiment: In vitro anti-malarial activity, [3H]hypoxanthine uptake, W2 clone; format: cell-based, Plasmodium falciparum
Excerpt: as §1, §2

[3] = system: human adult liver epithelial cells (THLE-3); experiment: In vitro toxicity evaluation, Sulforhodamine B; format: cell-based; conditions: for IC50: Homo sapiens, read-out: IC50 THLE-3; for Selectivity IC50 (THLE-3)/IC50 (D6): ratio THLE-3 vs D6
Description: as §1
Human adult liver epithelial cells (THLE-3) was maintained in tissue culture flasks in Waymouth's medium (Gibco, N.Y.) supplemented with 10% fetal bovine serum. Toxicity tests were performed in 96-well tissue culture plates using the protein-binding dye Sulforhodamine B. Test compounds were serially diluted and added to empty wells of the 96-well plate. THLE-3 cells in their culture medium were immediately seeded into the wells. Solvent blanks (no compound) were run in each test. After 72 hours under culture conditions cells were fixed to the plate by layering 50% TCA (4° C.) over the growth media in each well to produce a final TCA concentration of 10%. After incubating for one hour at 4° C., cultures were washed five times with tap water and left air-dried. Wells were stained for 30 min. with 0.4% (w/v) SRB in 1% acetic acid and washed four times with 1% acetic acid. Cultures were left air-dried and bound dye was solubilized with 10 mM Tris base (pH 10.5) for 15 min. on a gyratory shaker at room temperature. A Spectra MAX Plus Microtiter Plate Reader (Molecular Devices, Menlo Park, Calif.) was used to measure the optical density at wavelengths of 490-530 nm.

P. berghei [4] = experiment: Blood schizontocidal test in mice, oral; format: in vivo; conditions: for toxicity in mice: oral, at the highest dose tested
Description: Drugs were mixed in 0.5% hydroxycellulose 0.1% Tween 80 and administered orally b.i.d. on days 3, 4 and 5 postinfection. CD-1 male or female mice, 5 weeks of age, were infected with 5×10^4 parasitized erythrocytes of Plasmodium berghei KBG-173 mm strain. Blood films were taken on day +6 and weekly thereafter until day +60. Parasitemias were calculated and SD90 value (dose suppressing 90% of the parasites in treated groups compared with the infected non-treated controls) on day +6 postinfection. Mortality data was tabulated for 60 days at which time all mice surviving that were blood film negative were considered cured. […]

P. berghei [5] = experiment: Suppressive blood schizontocidal activity in mice, subcutaneous single dose; format: in vivo; conditions: 72 h after infection
Description: Mice were treated with a single dose of the compound administered subcutaneously 72 h after infection. Number of cures is the number of mice surviving, out of five, 60 days postinfection.

[6] = system: Plasmodium berghei KBG-173; experiment: Prophylactic test in mice, oral; format: in vivo; conditions: for Mice infected and treated/Mice surviving day 60: oral; for protection from malaria: single dose of 0.5 mg/kg within 2 days pre-infection through 2 days post-infection
Description: Compounds were tested for oral prophylactic activity.
CD-I male or female mice, 5 weeks of age, were infected with 5×10^4 parasitized erythrocytes of Plasmodium berghei KBG-173 mm strain. […]

[7] = oral dose 0.25 mg/kg/day (total dose 0.75 mg/kg)
[8] = oral dose 1.0 mg/kg/day (total dose 3.0 mg/kg)
[9] = oral dose 4.0 mg/kg/day (total dose 12 mg/kg)
[10] = oral dose 16 mg/kg/day (total dose 48 mg/kg)
[11] = oral dose 64 mg/kg/day (total dose 192 mg/kg)
[12] = Plasmodium falciparum, D6; read-out: IC50 D6 Strain
[13] = Plasmodium falciparum, W2; read-out: IC50 W2 Strain
[14] = THLE3, THLE-3 cells, 72 hours, cell growth inhibition
[15] = subcutaneous single dose 1 mg/kg
[16] = subcutaneous single dose 2 mg/kg
[17] = subcutaneous single dose 4 mg/kg
[18] = subcutaneous single dose 8 mg/kg
[19] = subcutaneous single dose 16 mg/kg
[20] = subcutaneous single dose 32 mg/kg
[21] = subcutaneous single dose 64 mg/kg
[22] = subcutaneous single dose 128 mg/kg
[23] = day of treatment 1, dose 0.5 mg/kg
[24] = day of treatment 1, dose 2 mg/kg
[25] = day of treatment 1, dose 8 mg/kg
[26] = day of treatment 1, dose 32 mg/kg
[27] = day of treatment 2, dose 0.5 mg/kg
[28] = day of treatment 2, dose 2 mg/kg
[29] = day of treatment 2, dose 8 mg/kg
[30] = day of treatment 2, dose 32 mg/kg
[31] = day of treatment −1, dose 0.5 mg/kg
[32] = day of treatment −1, dose 2 mg/kg
[33] = day of treatment −1, dose 8 mg/kg
[34] = day of treatment −1, dose 32 mg/kg
[35] = day of treatment −2, dose 0.5 mg/kg
[36] = day of treatment −2, dose 2 mg/kg
[37] = day of treatment −2, dose 8 mg/kg
[38] = day of treatment −2, dose 32 mg/kg

Structure (SMILES) | Selectivity IC50 (THLE-3)/IC50 (D6) [3] | Mice surviving 60 days/Mice infected and treated (P. berghei [4]; [7]) | Mice surviving 60 days/Mice infected and treated (P. berghei [4]; [8]) | Mice surviving 60 days/Mice infected and treated (P. berghei [4]; [9]) | Mice surviving 60 days/Mice infected and treated (P. berghei [4]; [10]) | Mice surviving 60 days/Mice infected and treated (P. berghei [4]; [11]) | inhibitory activity against chloroquine sensitive malaria strain (D-6), in words ([1]; D-6 strain) | IC50 [1, 12] | IC50 [2, 13] | inhibitory activity against chloroquine resistant malaria strain (W-2), in words ([2]; W-2 strain) | IC50 [3, 14] | toxicity in mice (P. berghei [4]) | Mice surviving 60 days/Mice infected and treated (P. berghei [5]; [15]) | Mice surviving 60 days/Mice infected and treated (P. berghei [5]; [16]) | Mice surviving 60 days/Mice infected and treated (P. berghei [5]; [17]) | Mice surviving 60 days/Mice infected and treated (P. berghei [5]; [18]) | Mice surviving 60 days/Mice infected and treated (P. berghei [5]; [19]) | Mice surviving 60 days/Mice infected and treated (P. berghei [5]; [20]) | Mice surviving 60 days/Mice infected and treated (P. berghei [5]; [21]) | Mice surviving 60 days/Mice infected and treated (P. berghei [5]; [22]) | other results
CCN(CC)CCCC(C)Nc1ccnc2cc(Cl)ccc12 (centres unmarked) [Chloroquine, reference compound] | 463 | 0/7 | 0/7 | 2/7 | 4/7 | 0/7 | – | – | – | – | – | – | – | – | – | – | – | – | – | – | IC50 ([1]; Plasmodium falciparum, D6, read-out: IC50 D6 Strain): 6.3 ng/mL (≈ 0.0197 µM); IC50 ([2]; Plasmodium falciparum, W2, read-out: IC50 W2 Strain): 108 ng/mL (≈ 0.338 µM); IC50 ([3]; THLE3, 72 h): 2920 ng/mL (≈ 9.13 µM)
CC[C@@]12C=Cc3nc4c(OC)c(OC)c5c(c4cc3C1N(C(C)=O)CC1O[C@@H]12)C(=O)[C@](C)(C(=O)OC)N5C(C)=O (some centres unmarked) [Formula II] | 7.3 × 10^4 | 7/7 | 7/7 | 7/7 | 7/7 | 7/7 | equally potent inhibitory activity | 0.21 ng/mL | 0.23 ng/mL | equally potent inhibitory activity | 15400 ng/mL | no mice showed toxicity | 4/5 | 5/5 | 5/5 | 5/5 | 5/5 | 5/5 | 5/5 | 5/5 | Mice infected and treated/Mice surviving day 60 [6, 23]: 5/5; Mice infected and treated/Mice surviving day 60 [6, 24]: 5/5; Mice infected and treated/Mice surviving day 60 [6, 25]: 5/5; Mice infected and treated/Mice surviving day 60 [6, 26]: 5/5; Mice infected and treated/Mice surviving day 60 [6, 27]: 5/5; Mice infected and treated/Mice surviving day 60 [6, 28]: 5/5; Mice infected and treated/Mice surviving day 60 [6, 29]: 5/5; Mice infected and treated/Mice surviving day 60 [6, 30]: 5/5; Mice infected and treated/Mice surviving day 60 [6, 31]: 5/5; Mice infected and treated/Mice surviving day 60 [6, 32]: 5/5; Mice infected and treated/Mice surviving day 60 [6, 33]: 5/5; Mice infected and treated/Mice surviving day 60 [6, 34]: 5/5; Mice infected and treated/Mice surviving day 60 [6, 35]: 5/5; Mice infected and treated/Mice surviving day 60 [6, 36]: 5/5; Mice infected and treated/Mice surviving day 60 [6, 37]: 5/5; Mice infected and treated/Mice surviving day 60 [6, 38]: 5/5; protection from malaria [6]: completely protected from malaria
CC[C@]12C=CCN(C(C)=O)C1c1cc3c(nc1C=C2)c(OC)c(OC)c1c3cc(C(=O)SC)n1C(C)=O (some centres unmarked) [Formula I] | 5.3 × 10^4 | 7/7 | 7/7 | 7/7 | 7/7 | 7/7 | equally potent inhibitory activity | 0.32 ng/mL | 0.29 ng/mL | equally potent inhibitory activity | 17100 ng/mL | no mice showed toxicity | 4/5 | 5/5 | 5/5 | 5/5 | 5/5 | 5/5 | 5/5 | 5/5 | Mice infected and treated/Mice surviving day 60 [6, 23]: 5/5; Mice infected and treated/Mice surviving day 60 [6, 24]: 5/5; Mice infected and treated/Mice surviving day 60 [6, 25]: 5/5; Mice infected and treated/Mice surviving day 60 [6, 26]: 5/5; Mice infected and treated/Mice surviving day 60 [6, 27]: 5/5; Mice infected and treated/Mice surviving day 60 [6, 28]: 5/5; Mice infected and treated/Mice surviving day 60 [6, 29]: 5/5; Mice infected and treated/Mice surviving day 60 [6, 30]: 5/5; Mice infected and treated/Mice surviving day 60 [6, 31]: 5/5; Mice infected and treated/Mice surviving day 60 [6, 32]: 5/5; Mice infected and treated/Mice surviving day 60 [6, 33]: 5/5; Mice infected and treated/Mice surviving day 60 [6, 34]: 5/5; Mice infected and treated/Mice surviving day 60 [6, 35]: 5/5; Mice infected and treated/Mice surviving day 60 [6, 36]: 5/5; Mice infected and treated/Mice surviving day 60 [6, 37]: 5/5; Mice infected and treated/Mice surviving day 60 [6, 38]: 5/5; protection from malaria [6]: completely protected from malaria
